According to ChEMBL document CHEMBL5120970, “Cryptic Epoxytiglianes from the Kernels of the Blushwood Tree (Fontainea picrosperma)” (J Nat Prod, 2022):

Assays:
Neutrophil = experiment: Induction of ROS production in human polymorphonuclear neutrophils incubated for 10 mins by DHE staining based fluorescence assay; assay type: functional, cell-based
K562 = experiment: Cytotoxicity against PKC sensitive human K562 cells assessed as inhibition of cell growth measured after 7 days by Cell Titer Aqueous96 one solution reagent assay; assay type: functional, cell-based; conditions: K562, 168 h

| EC50 (Neutrophil) [µM] | SMILES | IC50 (K562) [µM] |
| --- | --- | --- |
| 0.125 | C/C=C(\C)C(=O)O[C@@H]1[C@@H](C)[C@@]2(O)[C@H]([C@@H]3C(C)(C)[C@]13OC(=O)[C@@H](C)CC)[C@@H]1O[C@]1(CO)[C@@H](O)[C@]1(O)C(=O)C(C)=C[C@H]12 [TIGILANOL TIGLATE] | 0.0119 |
| > 3.63 | C/C=C(\C)C(=O)O[C@@H]1[C@@H](C)[C@@]2(O)[C@H]([C@@H]3C(C)(C)[C@]13OC(=O)[C@@H](C)CC)[C@@H]1O[C@]1(COC(=O)CCCCCCC/C=C\C/C=C\CCCCC)[C@@H](O)[C@]1(O)C(=O)C(C)=C[C@H]12 | 0.124 |
